Experimental data published in patent US20230041228A1, “Small Molecule Inhibition of Micro-RNA-210 Reprograms an Oncogenic Hypoxic Circuit” (University of Florida Research Foundation, Incorporated, priority 2017, published 2023).
“Also recorded” adds a separate entry of the source.

Tests used:
[1] = tested on: miR-210; test: RT-qPCR of miR-210 (mature, pri-, pre-) in MDA-MB-231 cells under hypoxic conditions; type: cell-based
Procedure: (§1) MDA-MB-231 cells were cultured in RPMI 1640 medium supplemented with 10% FBS (Sigma), 1× Glutagro (Corning), and 1× Pen/Strep (MP Biomedicals, LLC) (growth medium). Cells cultured in normoxia were maintained at 37° C. in ambient atmosphere (˜21% O2) with 5% CO2. Cells cultured in hypoxia were maintained at 37° C., <1% O2 in a nitrogen filled hypoxic chamber (Billups-Rothenberg, Inc.), and 5% CO2.
(§2) Approximately 200-600 ng of RNA was used in subsequent reverse transcription reactions using a miScript II RT Kit (Qiagen) or a qScript cDNA Synthesis Kit (Quanta Biosciences) per the manufacturers' recommended protocols. Primers for RT-qPCR were purchased from Integrated DNA Technologies (IDT) or Eurofins (Table S1) and used without further purification. RT-qPCR samples were prepared using Power SYBR Green PCR Master Mix (Applied Biosystems) and completed by using a 7900HT Fast Real Time PCR System (Applied Biosystems). Expression levels of RNA were normalized to U6 small nuclear RNA, GAPDH mRNA, or 18S rRNA.

[2] = biological target: pre-miR-210 RNA; test: In solution fluorescent binding assay
Procedure: Dissociation constants for the binding of pre-miR-210 RNA to Hoechst 33342 and Targapremir-210 were determined using an in solution, fluorescent binding assay. RNA was folded in 1× Binding Buffer (8 mM Na2HPO4, 190 mM NaCl, 1 mM EDTA, and 40 μg/mL BSA) at 60° C. for 5 min and then allowed to cool to room temperature for 10 min. Hoechst 33342 or Targapremir-210 was added to a final concentration of 500 nM. Next, 1:2 serial dilutions were performed in 1× Binding Buffer supplemented with 500 nM of Hoechst 33342 or Targapremir-210. Solutions were incubated for 30 min and then transferred to Corning non-binding surface 96-well black plates. Fluorescence intensity was then measured on a Bio-Tek FLX-800 plate reader. Change in fluorescence intensity was fit as a function of RNA concentration with equation 1: […]
where I and I0 are the observed fluorescence intensity in the presence and absence of RNA, respectively, Δε is the difference between the fluorescence intensity in the absence and in the presence of infinite RNA concentration, [FL]0 and [RNA]0 are the concentrations of compound (Hoechst 33342 or Targapremir-210) and RNA, respectively, and Kt is the dissociation constant.

[3] = tested on: miR-96 and miR-210 levels; test: Effect on miR-96 and miR-210 levels under hypoxic conditions; type: cell-based
[4] = tested on: miR-210 hairpin precursor; test: Cellular Chem-CLIP and C-Chem-CLIP, miR-210; type: cell-based; details: read-out: concentration required to inhibit ˜50% of the reaction of Targapremir-210-CA-Biotin with the miR-210 hairpin precursor (C-Chem-CLIP); MDA-MB-231 cells, 200 nM probe
Procedure: (§3) MDA-MB-231 cells were grown in growth medium as monolayers in 60 mm dishes to ˜60% confluency. […] Cells were immediately placed under hypoxic conditions for 48 h, and total RNA was extracted using a Quick-RNA MiniPrep (Zymo Research) per the manufacturer's protocol. Approximately 10 μg of total RNA was incubated with 100 μL of streptavidin-agarose beads in 1× PBS for 1 h at room temperature with gentle shaking. The solution was removed and the beads were washed 8 times with 300 μL of in 1× PBS. Bound RNA was released from the beads by heating in 1× Elution Buffer (95% formamide, 10 mM EDTA, pH 8.2) at 60° C. for 20 min. The pulled-down RNA was purified using a Quick-RNA MiniPrep Kit (Zymo Research) and then used for subsequent RT and qPCR reactions as described above.
(§4) The relative fold-change in the amount of an RNA before and after pull-down was calculated by the ΔΔCt method as shown in equation 1: […]
(§5) Relative Fold−Change:2^−(ΔC^t ^before pull-down−Δc^t ^after pull-down) (1)
(§6) where the “ΔCt before pull-down” is the difference between the Ct values for the RNA of interest and a housekeeping gene (U6 small nuclear RNA, GAPDH mRNA, or 18S rRNA) in total RNA isolated from cells and “ΔCtafter pull-down” is the difference between the Ct values the RNA of interest and the same housekeeping gene after pull-down.

[5] = tested on: HIF-1α mRNA; test: RT-qPCR of HIF-1α mRNA in hypoxic MDA-MB-231 cells; type: cell-based; details: 200 nM
Procedure: as §1, §2

[6] = tested on: miR-210 hairpin precursor (pre-miR-210), Dicer processing; test: In vitro Dicer protection assay; type: biochemical; details: recombinant human Dicer, gel quantification
Procedure: The miR-210 precursor was 5′-end labeled with [γ-^32P] ATP and T4 polynucleotide kinase as previously described^4. The RNA was then folded in 1× Reaction Buffer (Genlantis) by heating at 60° C. for 5 min and slowly cooling to room temperature, where it was then supplemented with 1 mM ATP and 2.5 mM MgCl2. Targapremir-210 was added to the reaction mixture and the samples were allowed to incubate at room temperature for 15 min. Recombinant human Dicer enzyme (Genlantis) was added to a final concentration of 0.01 U/μL and the samples were incubated for an additional 30 min at 37 ° C. Reactions were stopped by adding in 2× Gel Loading Buffer (8 M urea, 50 mM EDTA, 0.05% (w/v) bromophenol blue, 0.05% (w/v) xylene cyanol). To generate sequencing markers, pre-miR-210 was digested with RNase T1 (0.125 U/μL) in T1 Buffer (25 mM sodium citrate, pH 5, 7 M urea, and 1 mM EDTA) for 20 min at room temperature. An RNA hydrolysis ladder was prepared by incubating RNA in 1× RNA Hydrolysis Buffer (50 mM NaHCO3, 1 mM EDTA, pH 9.4) at 95° C. for 5 min. Cleavage products were resolved on a denaturing 15% polyacrylamide gel, which was imaged using a Molecular Dynamics Typhoon phosphorimager and quantified with Bio-Rad's QuantityOne software.

[7] = tested on: hypoxia-associated miRNAs; test: Cellular Chem-CLIP and C-Chem-CLIP, hypoxia-associated miRNAs; type: cell-based
Procedure: as §3, §4, §5, §6

[8] = tested on: GPD1L; test: RT-qPCR of GPD1L in hypoxic MDA-MB-231 cells; type: cell-based; details: 200 nM
Procedure: as §1, §2

[9] = Tumor localization by fluorescent microscopy; type: in vivo, NOD/SCID mice; details: single i.p. injection
Procedure: Resected tumor samples were frozen using O.C.T. Compound (Tissue-Tek) over dry ice. Frozen tissues were sectioned by cryostat and transferred to microscope slides. Fluorescent microscopic analysis was carried out using a Leica DMI3000 B upright fluorescent microscope.

[10] = tested on: miR-210; test: RT-qPCR of resected tumors, miR-210; type: in vivo, NOD/SCID mice; details: compared to untreated tumors
Procedure: as §2
(§7) NOD/SCID mice (B6.CB17-Prkdcscid/Sz, Jackson Laboratories) were housed in the Scripps Florida vivarium. All live animal experiments were approved by the Scripps Florida Institutional Animal Care and Use Committee. Two sets of experiments were completed: treatment of MDA-MB-231-GFP-luc cells prior to implantation and treatment of mice post-tumor implantation. For pre-treatment of tumor cells, MDA-MB-231-GFP-luc cells (5×10^6) were treated with or without Targapremir-210 (200 nM) or anti-miR-210 antagomir (500 nM) for 48 h pre-implantation. […]
(§8) Tumor growth was monitored weekly post-implantation by i.p. injection of 200 μL D-luciferin (15 mg/mL) and imaging with an IVIS 200 system. […] Levels of mature miR-210, HIF-1a, and GPLDL1 RNAs were measured by RT-qPCR as described above.

[11] = tested on: MDA-MB-231 cells; test: Apoptosis by Annexin V/propidium iodide staining and flow cytometry; type: cell-based; details: 200 nM
Procedure: as §1

[12] = tested on: RNA in which the Dicer site was ablated; details: reference 15; cited from earlier work
[13] = tested on: GPD1L mRNA; test: RT-qPCR of resected tumors, GPD1L; type: in vivo, NOD/SCID mice; details: compared to untreated tumors
Procedure: as §2, §7, §8

[14] = tested on: 15 miRNAs that have an RNA isoform that binds Targapremir-210; test: Cellular Chem-CLIP, RNA isoforms; type: cell-based; details: MDA-MB-231 cells; miR-497, miR-1273c, miR-3174, miR-107
Procedure: as §3, §4, §5, §6

[15] = biological target: pre-miR-210 Dicer site, 5′ACU3′/3′UCA5′; details: 5′ACU3′/3′UCA5′ motif; reference 15; read-out: Kd, binding affinity for the pre-miR-210 Dicer site; cited from earlier work
[16] = tested on: HIF-1α mRNA; test: RT-qPCR of resected tumors, HIF-1α; type: in vivo, NOD/SCID mice; details: compared to untreated tumors
Procedure: as §2, §7, §8

[17] = biological target: T1, Topoisomerase II (Homo sapiens, UniProt P11388); test: In vitro topoisomerase inhibition assay; type: biochemical; details: 200 nM
T1 construct: purchased TopoGEN, Inc
Procedure: Topoisomerase II inhibitory activity was measured using a Topoisomerase II Drug Screening Kit (TopoGEN, Inc.) per the manufacturer's protocol. Taragpremir-210 (200 nM) was added to 300 ng of DNA in 1× Complete Buffer (50 mM Tris-HCl, pH 8, 150 mM NaCl, 10 mM MgCl2, 0.5 mM dithiothreitol, 30 μg/mL BSA, and 2 mM ATP), followed by addition of 7.5 U of Topoisomerase II enzyme. The samples were incubated for 30 min at 37° C., and the reaction was stopped by the addition of 2 µL of 10% sodium dodecyl sulfate (SDS). Proteinase K (50 μg/mL) was then added and the solution was incubated for 15 min at 37° C. Topoisomers were separated on 1% agarose gels with or without 0.5 μg/mL ethidium bromide. Note, for gels containing ethidium bromide, the 1× TAE running buffer was also supplemented with 0.5 μg/mL ethidium bromide. Gels prepared without ethidium bromide were post-stained (0.5 μg/mL ethidium bromide). Both types of gels were destained in 1× TAE for 15 min, and the DNA products were visualized using a Bio-Rad Gel Doc XR+imaging system.

[18] = tested on: panel of hypoxia-associated miRNAs (n=28); test: Cellular selectivity, RT-qPCR of hypoxia-associated miRNAs; type: cell-based; details: 200 nM, MDA-MB-231 cells
Procedure: as §1, §2

[19] = tested on: MDA-MB-231-GFP-Luc tumors; test: TNBC mouse xenograft model, tumor burden; type: in vivo, NOD/SCID mice; details: 200 nM, cell pre-treatment or single injection 24 h post-implantation; 21 days
Procedure: NOD/SCID mice (B6.CB17-Prkdcscid/Sz, Jackson Laboratories) were housed in the Scripps Florida vivarium. All live animal experiments were approved by the Scripps Florida Institutional Animal Care and Use Committee. Two sets of experiments were completed: treatment of MDA-MB-231-GFP-luc cells prior to implantation and treatment of mice post-tumor implantation. For pre-treatment of tumor cells, MDA-MB-231-GFP-luc cells (5×10^6) were treated with or without Targapremir-210 (200 nM) or anti-miR-210 antagomir (500 nM) for 48 h pre-implantation. A 100 μL PBS/Matrigel (1:1; BD Biosciences) cell suspension was subcutaneously transplanted into mouse breast fat pads. Alternatively, mouse breast fat pads were injected with a 100 μL PBS/Matrigel (1:1) cell suspension (5×10^6MDA-MB-231-GFP-luc cells) followed by intraperitoneal (i.p) injection of Targapremir-210 (100 μL of 200 nM) or anti-miR-210 antagomir (100 μL of 500 nM) 24 h post-transplantation.
Tumor growth was monitored weekly post-implantation by i.p. injection of 200 μL D-luciferin (15 mg/mL) and imaging with an IVIS 200 system. Tumors were resected 21 days post-transplantation following euthanasia. Levels of mature miR-210, HIF-1a, and GPLDL1 RNAs were measured by RT-qPCR as described above.

[20] = tested on: miRNAs with predicted compound binding sites; test: Cellular selectivity, RT-qPCR of RNA isoforms; type: cell-based; details: hypoxic MDA-MB-231 cells
Procedure: as §1, §2

[21] = 200 nM, hypoxic MDA-MB-231 cells

T1 sequence (P11388 whole entry): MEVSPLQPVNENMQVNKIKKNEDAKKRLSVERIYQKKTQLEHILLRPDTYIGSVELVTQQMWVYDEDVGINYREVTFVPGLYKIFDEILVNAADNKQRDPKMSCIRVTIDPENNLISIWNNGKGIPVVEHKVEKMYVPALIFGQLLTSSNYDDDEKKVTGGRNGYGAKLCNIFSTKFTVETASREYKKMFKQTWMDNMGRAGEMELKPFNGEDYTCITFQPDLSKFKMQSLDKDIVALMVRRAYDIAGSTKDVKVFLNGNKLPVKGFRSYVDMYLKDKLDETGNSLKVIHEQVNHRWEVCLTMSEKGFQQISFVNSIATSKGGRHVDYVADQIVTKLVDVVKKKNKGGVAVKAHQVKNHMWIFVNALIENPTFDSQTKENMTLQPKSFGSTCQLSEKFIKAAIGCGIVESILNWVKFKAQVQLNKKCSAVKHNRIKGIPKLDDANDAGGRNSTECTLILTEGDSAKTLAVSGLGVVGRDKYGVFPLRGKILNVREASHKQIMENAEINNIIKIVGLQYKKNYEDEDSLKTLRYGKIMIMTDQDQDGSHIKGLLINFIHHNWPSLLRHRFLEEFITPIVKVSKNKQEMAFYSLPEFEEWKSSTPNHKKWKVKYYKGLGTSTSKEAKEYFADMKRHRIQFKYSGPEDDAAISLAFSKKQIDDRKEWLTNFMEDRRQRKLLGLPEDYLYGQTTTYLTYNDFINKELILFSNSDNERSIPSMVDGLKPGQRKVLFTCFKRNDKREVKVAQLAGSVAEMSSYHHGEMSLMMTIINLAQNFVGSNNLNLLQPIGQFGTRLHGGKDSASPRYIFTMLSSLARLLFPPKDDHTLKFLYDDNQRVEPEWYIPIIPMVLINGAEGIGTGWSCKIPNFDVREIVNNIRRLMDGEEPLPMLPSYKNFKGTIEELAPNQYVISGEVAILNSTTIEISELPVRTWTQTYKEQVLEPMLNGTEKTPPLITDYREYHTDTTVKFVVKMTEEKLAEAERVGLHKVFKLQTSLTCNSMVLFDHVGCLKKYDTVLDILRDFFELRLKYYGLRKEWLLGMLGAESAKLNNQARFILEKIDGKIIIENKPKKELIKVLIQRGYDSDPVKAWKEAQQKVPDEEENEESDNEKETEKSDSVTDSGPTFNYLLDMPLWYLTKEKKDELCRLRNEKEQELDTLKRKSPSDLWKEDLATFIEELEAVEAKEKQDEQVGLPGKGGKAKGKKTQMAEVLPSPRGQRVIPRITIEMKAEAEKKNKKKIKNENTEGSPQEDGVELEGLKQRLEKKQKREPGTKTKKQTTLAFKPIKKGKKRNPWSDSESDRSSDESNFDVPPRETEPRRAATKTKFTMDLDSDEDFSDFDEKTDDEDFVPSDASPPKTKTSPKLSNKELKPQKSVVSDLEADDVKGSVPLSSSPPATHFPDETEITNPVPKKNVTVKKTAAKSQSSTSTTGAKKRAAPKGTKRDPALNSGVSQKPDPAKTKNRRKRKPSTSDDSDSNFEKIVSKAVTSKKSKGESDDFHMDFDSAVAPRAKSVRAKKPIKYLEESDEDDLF

## CCOc1ccc(-c2nc3ccc(-c4nc5ccc(N6CCN(C)CC6)cc5[nH]4)cc3[nH]2)cc1 [Hoechst 33342, reference compound]
[1]; [21]
  mature miR-210 levels: no statistically significant effect
[2]; up to 5000 nM pre-miR-210 added
  affinity for pre-miR-210: No saturable binding was observed

## CN1CCN(c2ccc3nc(-c4ccc5[nH]c(-c6cccc(OCCCC(=O)NCCCN=[N+]=[N-])c6)nc5c4)[nH]c3c2)CC1 [Targapremir-210]
[3]
  effect on miR-96 and miR-210 levels: only affects miR-210
[4]
  IC50: 200 nM
[5]
  reduction of HIF-1α mRNA levels: ~75%
[1]; [21]
  increase in pre-miR-210 levels: ~2.6 fold
  increase in pri-miR-210 levels: ~3 fold
[1]; Homo sapiens, MDA-MB-231 cells, hypoxic conditions, RT-qPCR, read-out: IC50, decrease of mature miR-210 levels
  IC50: ~200 nM
[6]
  inhibition of Dicer processing of pre-miR-210 in vitro: inhibited pre-miR-210 processing at nanomolar concentrations
[7]; Chem-CLIP probe pull-down, three of 28 enriched (miR-181a, miR-205, miR-206)
  highest relative fold pull-down among hypoxia-associated miRNAs other than miR-210: ~2.8 fold
[7]; MDA-MB-231 cells
  abundance of other hypoxia-associated miRNAs as a function of Targapremir-210 concentration (C-Chem-CLIP): did not change
[8]
  increase of GPD1L levels: ~4 fold
[9]
  compound localization in tumor: able to reach the tumor and sustain for the entire 21-day period
[10]
  reduction of miR-210 levels in resected tumors: ~90%
[11]; hypoxic conditions
  apoptosis: induced apoptosis
[11]; hypoxic conditions, pre-miR-210 overexpressed
  apoptosis with overexpression of pre-miR-210: allowed cells to escape apoptosis
[11]; normoxia
  apoptosis: did not induce apoptosis
[12]
  binding to RNA in which the Dicer site was ablated: did not bind
[13]
  GPD1L levels in resected tumors: doubled
[14]
  miRNAs with RNA isoform bound in cells (Chem-CLIP): only four of the miRNAs are bound
[2]; compared with binding to the Dicer site motif
  binding to in vitro transcribed pre-miR-210: binds similarly
[15]
  Kd: ~200 nM
[16]
  reduction of HIF-1α levels in resected tumors: ~75%
[17]
  inhibition of topoisomerase enzymatic activity: did not inhibit topoisomerase activity
[18]
  effect on levels of hypoxia-associated miRNAs: affected only levels of mature miR-210
[19]
  tumor growth (luciferase signal intensity, mass of the resected tumor): significantly decreased tumor growth
[20]
  effect on expression levels of miRNAs with predicted compound binding sites: only affected levels of miR-210; also recorded: no statistically significant effect
